Assay results from the supplement of paper PMC10307832.

Columns and labels:
Test in all cases: relative viability (nuclei count vs DMSO), 5 days (fraction); higher = more cells survive
Linsitinib + Phenformin = compound: C[C@]1(O)C[C@@H](c2nc(-c3ccc4ccc(-c5ccccc5)nc4c3)c3c(N)nccn32)C1 [Linsitinib] + N=C(N)NC(=N)NCCc1ccccc1 [Phenformin] (partner 250 µM)
Procedure, shortened: (§1)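 Relative viability is defined as nuclei in treated wells over nuclei in vehicle wells. Duplicate plates were run and medians reported. Lung cancer cell lines in 1536-well plates were dosed by pin tool one day after seeding, with one drug or with a fixed anchor-drug dose plus five library-drug doses (not always all listed) in √10 steps, and nuclei were counted after 5 days.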

Linsitinib + AZD7762 = compound: C[C@]1(O)C[C@@H](c2nc(-c3ccc4ccc(-c5ccccc5)nc4c3)c3c(N)nccn32)C1 [Linsitinib] + NC(=O)Nc1cc(-c2cccc(F)c2)sc1C(=O)N[C@H]1CCCNC1 [AZD7762] (partner 0.2 µM)
Procedure, shortened: as §1

Ispinesib + Lapatinib = compound: Cc1ccc(C(=O)N(CCCN)[C@@H](c2nc3cc(Cl)ccc3c(=O)n2Cc2ccccc2)C(C)C)cc1 [Ispinesib] + CS(=O)(=O)CCNCc1ccc(-c2ccc3ncnc(Nc4ccc(OCc5cccc(F)c5)c(Cl)c4)c3c2)o1 [Lapatinib] (partner 2 µM)
Procedure, shortened: as §1

Ispinesib + Pemetrexed = compound: Cc1ccc(C(=O)N(CCCN)[C@@H](c2nc3cc(Cl)ccc3c(=O)n2Cc2ccccc2)C(C)C)cc1 [Ispinesib] + Nc1nc2[nH]cc(CCc3ccc(C(=O)N[C@@H](CCC(=O)O)C(=O)O)cc3)c2c(=O)[nH]1 [Pemetrexed] (partner 0.2 µM)
Procedure, shortened: as §1

Cell Line	relative viability (Linsitinib + Phenformin; first compound 0.01 µM)	relative viability (Linsitinib + Phenformin; first compound 0.03162 µM)	relative viability (Linsitinib + Phenformin; first compound 0.1 µM)	relative viability (Linsitinib + Phenformin; first compound 0.3162 µM)	relative viability (Linsitinib + Phenformin; first compound 1 µM)	relative viability (Linsitinib + AZD7762; first compound 0.01 µM)	relative viability (Linsitinib + AZD7762; first compound 0.03162 µM)	relative viability (Linsitinib + AZD7762; first compound 0.1 µM)	relative viability (Linsitinib + AZD7762; first compound 1 µM)	relative viability (Ispinesib + Lapatinib; first compound 0.001 µM)	relative viability (Ispinesib + Lapatinib; first compound 0.003162 µM)	relative viability (Ispinesib + Lapatinib; first compound 0.01 µM)	relative viability (Ispinesib + Lapatinib; first compound 0.03162 µM)	relative viability (Ispinesib + Lapatinib; first compound 0.1 µM)	relative viability (Ispinesib + Pemetrexed; first compound 0.001 µM)	relative viability (Ispinesib + Pemetrexed; first compound 0.003162 µM)	relative viability (Ispinesib + Pemetrexed; first compound 0.01 µM)	relative viability (Ispinesib + Pemetrexed; first compound 0.03162 µM)	relative viability (Ispinesib + Pemetrexed; first compound 0.1 µM)	relative viability (Linsitinib + AZD7762; first compound 0.3162 µM)
NCI-H650	0.443	0.484	0.432	0.337	0.364	1.01	0.801	0.922	0.905	0.89	1.17	0.638	0.34	0.23	1.1	1.02	0.933	0.609	0.238	
IA-LM										0.833	1.03	0.513	0.123	0.197						
A-427	0.383	0.321	0.301		0.233	0.749	0.624	0.742	0.535	1.09	1.07	1.13	0.406	0.162	1.04	1.13	1.1	0.48	0.243	
NCI-H2347	0.391	0.534	0.385		0.467	0.645	0.736	0.792	0.669	0.943	1.05	0.957	0.667	0.774	0.47	0.432	0.433	0.41	0.425	0.747
NCI-H1793	0.362	0.373	0.369	0.271	0.282	0.577	0.559	0.39	0.169	0.655	0.84	0.909	0.377	0.238	1.09	0.943	1.12	0.775	0.232	0.352
